Legend:
[1] = tested on: LOC expression in mIDH1 (IDH1 R132H/WT) LN18 cells; assay: qPCR of LOC expression in mIDH1 cells; type: cell-based, human
Source text: FIG. 6: LOC: DHX15 serves as a targetable vulnerability in wtIDH1 high-grade glioma. A) LOC expression in different IDH mutation status across different WHO grade gliomas based on RNA-seq data from CGGA. B) qPCR of LOC expression in wtIDH1 LN18 cells or mIDH1 clones. Those clones were generated by base editing. C) qPCR of LOC expression in wtIDH1 and mIDH1 LN18 cells treated with or without mIDH1 inhibitor AGI-5198. D) qPCR of LOC expression in wtIDH1 and mIDH1 LN18 cells with or without DMNT inhibitor 5-Azac treatment. E) Protein lysates from wtIDH1 and mIDH1 LN18 cells were analyzed for levels of phosphorylated and total p65 and p38 proteins by western blot. F) wtIDH1 and mIDH1 LN18 cells were transfected with empty vector (EV) or expression vectors of LOC or mutant version of LOC (LOC-M2). After 48 hours cells were harvested and endogenous DHX15 or p65 was immunoprecipitated with antibody against DHX15 or p65. IP samples were analyzed by subsequent immunoblot for the indicated proteins at indicated time points. G-H) Cell viability assay of wtIDH1 G) and mIDH1 LN18 cells H) treated with or without DHX inhibitor. I) Fluorescence imaging of wtIDH1 and mIDH1 GBM orthotopic xenograft models with or without DHX inhibitor treatment. J) Quantification of tumor signal intensity obtained from I). […]

GBM cells = assay: Cell viability, RNA helicase inhibitors alone or with TMZ (FIG. 9); type: cell-based; details: for synergy on cell viability: combination therapy with TMZ; for cell viability: single agent

Row | Compound | IDH1 mutation induced hypermethylation phenotype (diminished LOC expression) ([1]; DNA methyltransferase inhibitor treatment, FIG. 6D) | synergy on cell viability (GBM cells) | cell viability (GBM cells) | LOC expression ([1]; IDH1 R132H/WT cells, mIDH1 inhibitor treatment, FIG. 6C)
1 | Nc1ncn([C@@H]2O[C@H](CO)[C@@H](O)[C@H]2O)c(=O)n1 [5-AzaC, 5-Azacytidine] | abrogate this hypermethylation phenotype |  |  | 
2 | COc1ccc([C@@]23Oc4cc(OC)cc(OC)c4[C@]2(O)[C@H](O)[C@H](C(=O)N(C)C)[C@H]3c2ccccc2)cc1 [Rocaglamide] |  | does not show synergistic inhibition of cell viability | inhibition of cell viability | 
3 | Cc1ccccc1C(C(=O)NC1CCCCC1)N(C(=O)Cn1ccnc1C)c1cccc(F)c1 (stereo not drawn) [selective mutant IDH1^R132H inhibitor] |  |  |  | restored the LOC expression
4 | RK-33 |  | does not show synergistic inhibition of cell viability | inhibition of cell viability | 
